“And” between values parts separate entries of the source, which are not always exact repeats. Equal entries are not always repeated. Toxic doses and inconclusive results are not listed. The calls were made as follows: active = survival T/C of 150% or more; inactive = T/C below 125% in these data.
System: CD2F1 mice, L1210 leukemia ip, survival T/C
Assay: NCI In Vivo Anticancer Drug Screen. Data for tumor model L1210 Leukemia (intraperitoneal) in CD2F1 (CDF1) mice
Details: higher = longer survival
Outline: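 Read-out first: treated-group measurement over vehicle-control measurement, expressed as a ratio. Animals bore a transplanted tumor line and were dosed with compound or vehicle.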

[1] = endpoint: mean survival time, dose: 100.0 mg/kg/injection, schedule: Q04DX003 (ip), vehicle: saline
[2] = endpoint: mean survival time, dose: 200.0 mg/kg/injection, schedule: Q04DX003 (ip), vehicle: saline
[3] = endpoint: mean survival time, dose: 400.0 mg/kg/injection, schedule: Q04DX003 (ip), vehicle: saline
[4] = endpoint: mean survival time, dose: 25.0 mg/kg/injection, schedule: Q01DX009 (ip), vehicle: saline
[5] = endpoint: mean survival time, dose: 50.0 mg/kg/injection, schedule: Q01DX009 (ip), vehicle: saline
[6] = endpoint: mean survival time, dose: 100.0 mg/kg/injection, schedule: Q01DX009 (ip), vehicle: saline
[7] = endpoint: mean survival time, dose: 100.0 mg/kg/injection, schedule: Q04DX003 (ip), vehicle: saline with Tween-80
[8] = endpoint: mean survival time, dose: 200.0 mg/kg/injection, schedule: Q04DX003 (ip), vehicle: saline with Tween-80
[9] = endpoint: mean survival time, dose: 400.0 mg/kg/injection, schedule: Q04DX003 (ip), vehicle: saline with Tween-80
[10] = endpoint: mean survival time, dose: 25.0 mg/kg/injection, schedule: Q01DX009 (ip), vehicle: saline with Tween-80
[11] = endpoint: mean survival time, dose: 50.0 mg/kg/injection, schedule: Q01DX009 (ip), vehicle: saline with Tween-80
[12] = endpoint: mean survival time, dose: 100.0 mg/kg/injection, schedule: Q01DX009 (ip), vehicle: saline with Tween-80
[13] = endpoint: mean survival time, dose: 100.0 mg/kg/injection, schedule: Q01DX001 (ip), vehicle: saline with Tween-80
[14] = endpoint: mean survival time, dose: 200.0 mg/kg/injection, schedule: Q01DX001 (ip), vehicle: saline with Tween-80
[15] = endpoint: mean survival time, dose: 200.0 mg/kg/injection, schedule: Q01DX009 (ip), vehicle: saline with Tween-80
[16] = endpoint: mean survival time, dose: 400.0 mg/kg/injection, schedule: Q01DX001 (ip), vehicle: saline with Tween-80
[17] = endpoint: mean survival time, dose: 400.0 mg/kg/injection, schedule: Q01DX009 (ip), vehicle: saline with Tween-80
[18] = endpoint: mean survival time, dose: 100.0 mg/kg/injection, schedule: Q01DX001 (ip), vehicle: saline
[19] = endpoint: mean survival time, dose: 200.0 mg/kg/injection, schedule: Q01DX001 (ip), vehicle: saline
[20] = endpoint: mean survival time, dose: 400.0 mg/kg/injection, schedule: Q01DX001 (ip), vehicle: saline
[21] = endpoint: median survival time, dose: 25.0 mg/kg/injection, schedule: Q01DX009 (ip), vehicle: saline with Tween-80
[22] = endpoint: median survival time, dose: 50.0 mg/kg/injection, schedule: Q01DX009 (ip), vehicle: saline with Tween-80
[23] = endpoint: median survival time, dose: 100.0 mg/kg/injection, schedule: Q01DX009 (ip), vehicle: saline with Tween-80
[24] = endpoint: median survival time, dose: 200.0 mg/kg/injection, schedule: Q01DX009 (ip), vehicle: saline with Tween-80

Measured: T/C

C[N+]12CCN(CC1)CC2
inactive: [1] 102 % of control | [2] 104 % of control | [3] 104 % of control

CC1=C(N2CC2C)C(=O)c2c(COC(N)=O)c3n(c2C1=O)CC1NC31 (centres undefined)
inactive: endpoint: mean survival time, dose: 2.5 mg/kg/injection, schedule: Q01DX001 (ip), vehicle: distilled water + Tween-80 111 % of control | endpoint: mean survival time, dose: 5.0 mg/kg/injection, schedule: Q01DX001 (ip), vehicle: distilled water + Tween-80 101 % of control | endpoint: mean survival time, dose: 10.0 mg/kg/injection, schedule: Q01DX001 (ip), vehicle: distilled water + Tween-80 111 % of control | endpoint: mean survival time, dose: 20.0 mg/kg/injection, schedule: Q01DX001 (ip), vehicle: distilled water + Tween-80 122 % of control

CC(C)CCNc1ncnc2c1cnn2C
inactive: [4] 97 % of control | [5] 108 % of control | [6] 86 % of control | [1] 116 % of control

Cc1nc(SCc2ccc(Cl)cc2)[nH]c(=O)c1CCO
inactive: [7] 92 % of control | [8] 96 % of control | [9] 94 % of control

CC1=C(/C=C/C(=O)CC(O)(C(F)(F)F)C(F)(F)F)C(C)(C)CCC1
inactive: [7] 104 % of control | [8] 98 % of control | [9] 101 % of control

CCOC(=O)c1cnc(=O)[nH]c1N
inactive: [10] 101 % of control | endpoint: mean survival time, dose: 25.0 mg/kg/injection, schedule: Q04DX003 (ip), vehicle: saline with Tween-80 104 % of control | [11] 104 % of control | endpoint: mean survival time, dose: 50.0 mg/kg/injection, schedule: Q04DX003 (ip), vehicle: saline with Tween-80 98 % of control | [12] 96 % of control | [7] 89 % of control and 100 % of control | [8] 98 % of control

Clc1nc(Oc2ccccc2)nc(-c2cn(-c3ccccc3)c3ccccc23)n1
inactive: [13] 98 % of control | [12] 95 % of control | [7] 102 % of control | [14] 102 % of control | [15] 101 % of control | [8] 98 % of control | [16] 102 % of control | [17] 97 % of control | [9] 101 % of control

COC(=O)C(C)NC(=O)C(CO)NC(=O)c1cnc2ccccc2n1 (centres undefined)
inactive: [18] 98 % of control | [19] 102 % of control | [20] 94 % of control

CCOC(=O)c1ccc(NCN2C(=O)CCC2=O)cc1
inactive: [12] 95 % of control | [15] 101 % of control | [17] 102 % of control

O=C1CCCc2c1[nH]c1ccccc21
inactive: [12] 94 % of control | [15] 104 % of control | [17] 102 % of control

COc1cc(OC)c(NC(=O)OCC2CCCO2)cc1Cl (centres undefined)
inactive: [11] 90 % of control | [12] 97 % of control | [15] 94 % of control

O=C(NC1=C(N2CC2)C(=O)C(NC(=O)OCCO)=C(N2CC2)C1=O)OCCO
inactive: endpoint: mean survival time, dose: 0.18 mg/kg/injection, schedule: Q01DX009 (ip), vehicle: saline 109 % of control and 112 % of control | endpoint: mean survival time, dose: 0.39 mg/kg/injection, schedule: Q01DX009 (ip), vehicle: saline 113 % of control and 104 % of control | endpoint: mean survival time, dose: 0.75 mg/kg/injection, schedule: Q01DX009 (ip), vehicle: saline 117 % of control and 120 % of control

CC1CC(C)(C)NC(CCC2NC(C)(C)CC(C)O2)O1 (centres undefined)
inactive: [12] 92 % of control

CCN(CC)N1C(=O)[N+](CC)(CC)N=C1[O-]
inactive: [1] 102 % of control | [2] 95 % of control | [3] 101 % of control

O=S(=O)(O)c1ccc(O)c(S(=O)(=O)O)c1
inactive: [18] 97 % of control | [19] 101 % of control | [20] 97 % of control

NC(CCCCNC(c1ccccc1)(c1ccccc1)c1ccccc1)C(=O)O (centres undefined)
inactive: [4] 96 % of control | [5] 94 % of control | [6] 103 % of control

Cc1ccc(NC(=O)ON(C)C)cc1
inactive: endpoint: mean survival time, dose: 100.0 mg/kg/injection, schedule: Q04DX002 (ip), vehicle: other 102 % of control

COc1ccc(OC)c(C(=O)CCl)c1
inactive: [12] 100 % of control | [7] 96 % of control | [15] 102 % of control | [8] 101 % of control | [9] 92 % of control

OCN(CO)c1nc(N(CO)CO)nc(N(CO)CO)n1
inactive: endpoint: mean survival time, dose: 6.3 mg/kg/injection, schedule: Q01DX009 (ip), vehicle: saline with Tween-80 92 % of control | endpoint: mean survival time, dose: 12.5 mg/kg/injection, schedule: Q01DX009 (ip), vehicle: saline with Tween-80 96 % of control | [10] 87 % of control

COc1ccc2c(c1[N+](=O)[O-])CCCCC2=O
inactive: endpoint: mean survival time, dose: 50.0 mg/kg/injection, schedule: Q01DX009 (ip), vehicle: other 100 % of control | endpoint: mean survival time, dose: 100.0 mg/kg/injection, schedule: Q01DX009 (ip), vehicle: other 92 % of control | endpoint: mean survival time, dose: 200.0 mg/kg/injection, schedule: Q01DX009 (ip), vehicle: other 100 % of control

CCCCCCNc1nc(NCCCCCC)c2[nH]c(NCCCCCC)nc2n1
inactive: [21] 107 % of control | [22] 107 % of control | [23] 106 % of control | [24] 105 % of control

CC(=O)OC(C)C(OC(C)=O)C(OC(C)=O)C(C=O)OC(C)=O (centres undefined)
inactive: endpoint: mean survival time, dose: 100.0 mg/kg/injection, schedule: Q01DX001 (ip), vehicle: Klucel (hydroxypropylcellulose) (HPC) 101 % of control | endpoint: mean survival time, dose: 200.0 mg/kg/injection, schedule: Q01DX001 (ip), vehicle: Klucel (hydroxypropylcellulose) (HPC) 101 % of control | endpoint: mean survival time, dose: 400.0 mg/kg/injection, schedule: Q01DX001 (ip), vehicle: Klucel (hydroxypropylcellulose) (HPC) 101 % of control

CCCCCC(O)C(C)C(C)C (centres undefined)
inactive: [11] 100 % of control | [12] 95 % of control | [15] 103 % of control

CCCCCC(=O)O[C@]1(C(C)=O)CC[C@H]2[C@@H]3CCC4=CC(=O)CC[C@]4(C)[C@H]3CC[C@@]21C
inactive: [21] 109 % of control | [22] 96 % of control | [23] 97 % of control | [24] 95 % of control | endpoint: median survival time, dose: 400.0 mg/kg/injection, schedule: Q01DX009 (ip), vehicle: saline with Tween-80 93 % of control

CCOC(=O)C(=O)Nc1c(C)noc1N
inactive: [13] 109 % of control | endpoint: mean survival time, dose: 100.0 mg/kg/injection, schedule: Q01DX009 (ip), vehicle: Klucel (hydroxypropylcellulose) (HPC) 93 % of control | [14] 104 % of control | endpoint: mean survival time, dose: 200.0 mg/kg/injection, schedule: Q01DX009 (ip), vehicle: Klucel (hydroxypropylcellulose) (HPC) 93 % of control | [16] 97 % of control | endpoint: mean survival time, dose: 400.0 mg/kg/injection, schedule: Q01DX009 (ip), vehicle: Klucel (hydroxypropylcellulose) (HPC) 91 % of control

O=C(O)C(Cl)(Br)C(Cl)c1ccccc1 (centres undefined)
inactive: [7] 100 % of control | [8] 102 % of control | [9] 103 % of control

— PubChem BioAssay AID256 (DTP/NCI, 2004)
